According to patent US20260265316A1, “IMMUNOTHERAPEUTIC METHODS, COMPOUNDS, AND COMPOSITIONS FOR TREATING OR PREVENTING CELIAC DISEASE” (DBV Technologies, priority 2023, published 2026):

Assay: Solubility upon drying on PET-Ti backing film and storage for 1 or 3 months at room temperature or 5° C.
Type: physicochemical
Method: Backing films were stored for 1 month at room temperature (A, B, C) or 5° C. (D, E, F), away from light and humidity.
Backing films were stored for 3 months at room temperature (A, B, C) or 5° C. (D, E, F), away from light and humidity.
In order to evaluate their solubility upon deposition on a patch backing film and a period of storage, the three polypeptide constructs and the four individual building blocks were each dried on a PET-Ti backing film as described above. Backing films were stored at room temperature or 5° C. for 1 or 3 months.

[1] = stored at 5° C. for 1 month, PBS 1×
[2] = stored at 5° C. for 1 month, artificial perspiration
[3] = stored at 5° C. for 1 month, water
[4] = stored at 5° C. for 3 months, PBS 1×
[5] = stored at 5° C. for 3 months, artificial perspiration
[6] = stored at 5° C. for 3 months, water
[7] = stored at room temperature for 1 month, PBS 1×
[8] = stored at room temperature for 1 month, artificial perspiration
[9] = stored at room temperature for 1 month, water
[10] = stored at room temperature for 3 months, PBS 1×
[11] = stored at room temperature for 3 months, artificial perspiration
[12] = stored at room temperature for 3 months, water

decrease in median percentage of soluble material recovered from the patch backing film compared to 4K [1] [%] | decrease in median percentage of soluble material recovered from the patch backing film compared to Av6 [1] [%] | decrease in median percentage of soluble material recovered from the patch backing film compared to Cv6 [1] [%] | decrease in median percentage of soluble material recovered from the patch backing film compared to 4K [2] [%] | decrease in median percentage of soluble material recovered from the patch backing film compared to Av6 [2] [%] | decrease in median percentage of soluble material recovered from the patch backing film compared to Cv6 [2] [%] | decrease in median percentage of soluble material recovered from the patch backing film compared to 4K [3] [%] | decrease in median percentage of soluble material recovered from the patch backing film compared to Av6 [3] [%] | decrease in median percentage of soluble material recovered from the patch backing film compared to Cv6 [3] [%] | decrease in median percentage of soluble material recovered from the patch backing film compared to 4K [4] [%] | decrease in median percentage of soluble material recovered from the patch backing film compared to Av6 [4] [%] | decrease in median percentage of soluble material recovered from the patch backing film compared to Cv6 [4] [%] | decrease in median percentage of soluble material recovered from the patch backing film compared to 4K [5] [%] | decrease in median percentage of soluble material recovered from the patch backing film compared to Av6 [5] [%] | decrease in median percentage of soluble material recovered from the patch backing film compared to Cv6 [5] [%] | decrease in median percentage of soluble material recovered from the patch backing film compared to 4K [6] [%] | decrease in median percentage of soluble material recovered from the patch backing film compared to Av6 [6] [%] | decrease in median percentage of soluble material recovered from the patch backing film compared to Cv6 [6] [%] | decrease in median percentage of soluble material recovered from the patch backing film compared to 4K [7] [%] | decrease in median percentage of soluble material recovered from the patch backing film compared to Av6 [7] [%] | Substance | also measured
16 | 7 | 14 | 14 | 8 | 7 | 20 | 10 | 6 | 16 | 9 | 16 | 20 | 15 | 14 | 19 | 15 | 13 | 15 | 11 | H-PQPEQPEQPFPEQPQ-NH2 [BB2a] | decrease in median percentage of soluble material recovered from the patch backing film compared to Cv6 [7]: 14%; decrease in median percentage of soluble material recovered from the patch backing film compared to 4K [8]: 14%; decrease in median percentage of soluble material recovered from the patch backing film compared to Av6 [8]: 1%; decrease in median percentage of soluble material recovered from the patch backing film compared to Cv6 [8]: 14%; decrease in median percentage of soluble material recovered from the patch backing film compared to 4K [9]: 18%; decrease in median percentage of soluble material recovered from the patch backing film compared to Av6 [9]: 9%; decrease in median percentage of soluble material recovered from the patch backing film compared to Cv6 [9]: 13%; decrease in median percentage of soluble material recovered from the patch backing film compared to 4K [10]: 17%; decrease in median percentage of soluble material recovered from the patch backing film compared to Av6 [10]: 17%; decrease in median percentage of soluble material recovered from the patch backing film compared to Cv6 [10]: 15%; decrease in median percentage of soluble material recovered from the patch backing film compared to 4K [11]: 16%; decrease in median percentage of soluble material recovered from the patch backing film compared to Av6 [11]: 10%; decrease in median percentage of soluble material recovered from the patch backing film compared to Cv6 [11]: 16%; decrease in median percentage of soluble material recovered from the patch backing film compared to 4K [12]: 15%; decrease in median percentage of soluble material recovered from the patch backing film compared to Av6 [12]: 10%; decrease in median percentage of soluble material recovered from the patch backing film compared to Cv6 [12]: 4%
14 | 5 | 12 | 13 | 8 | 7 | 14 | 4 | 0 | 17 | 10 | 17 | 17 | 11 | 10 | 18 | 14 | 12 | 14 | 10 | H-PSGEGSFQPSQENPQ-NH2 [BB4a] | decrease in median percentage of soluble material recovered from the patch backing film compared to Cv6 [7]: 13%; decrease in median percentage of soluble material recovered from the patch backing film compared to 4K [8]: 14%; decrease in median percentage of soluble material recovered from the patch backing film compared to Av6 [8]: 1%; decrease in median percentage of soluble material recovered from the patch backing film compared to Cv6 [8]: 14%; decrease in median percentage of soluble material recovered from the patch backing film compared to 4K [9]: 15%; decrease in median percentage of soluble material recovered from the patch backing film compared to Av6 [9]: 7%; decrease in median percentage of soluble material recovered from the patch backing film compared to Cv6 [9]: 11%; decrease in median percentage of soluble material recovered from the patch backing film compared to 4K [10]: 11%; decrease in median percentage of soluble material recovered from the patch backing film compared to Av6 [10]: 11%; decrease in median percentage of soluble material recovered from the patch backing film compared to Cv6 [10]: 9%; decrease in median percentage of soluble material recovered from the patch backing film compared to 4K [11]: 12%; decrease in median percentage of soluble material recovered from the patch backing film compared to Av6 [11]: 6%; decrease in median percentage of soluble material recovered from the patch backing film compared to Cv6 [11]: 12%; decrease in median percentage of soluble material recovered from the patch backing film compared to 4K [12]: 13%; decrease in median percentage of soluble material recovered from the patch backing film compared to Av6 [12]: 9%; decrease in median percentage of soluble material recovered from the patch backing film compared to Cv6 [12]: 2%
